This note sets out measurements from US7989438B2, “Therapeutic compounds” (Istituto di Ricerche di Biologia Molecolare P. Angeletti SpA, priority 2007, dated 2011).

The assay concerns HCV subgenomic replication. Description: Cell based HCV replication assay (subgenomic replicon in Huh-7 cells, NS3 Cell-ELISA). Conditions: activity ranges. Put shortly:
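Huh-7 cells stably carrying the I377neo/NS3-3′/wt subgenomic replicon, seeded at 10^4 cells/well in DMEM/10% FCS and exposed to inhibitor for 96 h. NS3 expression was measured by Cell-ELISA (mAb 10E5/24, alkaline phosphatase, absorbance 405/620 nm), in duplicate. IC50 was fitted to the Hill equation, with background from parental Huh-7 cells.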
For orientation: In antiviral work, replicon cells carry a viral genome segment that copies itself.

[1] abbreviates: Hepatitis C virus, Huh-7, Table 3, various macrocycles, read-out: IC50* (nM), Inhibition of HCV subgenomic replication.
Where [2] appears, read: Hepatitis C virus, Huh-7, Table 5, various macrocycles, read-out: IC50* (nM), Inhibition of HCV subgenomic replication.
Setting [3] is: Table 2, various macrocycles, read-out: IC50* (nM), Inhibition of HCV subgenomic replication.
The mark [4] stands for this setting: Table A, Huh-7 replicon cells, 96 hours, read-out: IC50 (nM), Inhibition of HCV subgenomic replication.
Setting [5] is: Hepatitis C virus, Table A, Huh-7 replicon cells, 96 hours, read-out: IC50 (nM), Inhibition of HCV subgenomic replication.

Like-named read-outs stand apart in the source and are kept apart here.

Turning to `CN1CCN(CC(N)=O)C2COc3ccccc3-c3c(C4CCCCC4)c4ccc(cc4n3C2)C(=O)NS(=O)(=O)N(C)CC1` [Example 408, 2-[(7R)-14-cyclohexyl-18,21-dimethyl-17,17-dioxido-15-oxo-7,8-dihydro-6H-7,11-(epiminoethanoiminoethanoiminothioiminomethano)-indolo[1,2-e][1,5]benzoxazocin-24-yl]acetamide], for the setting “Table 4, various macrocycles, read-out: IC50* (nM), Inhibition of HCV subgenomic replication”, the half-maximal inhibitory concentration (IC50) lay in the range of 25 to 150 nM.

For the molecule `O=C1NS(=O)(=O)N2CCN(CCN(CCF)[C@H]3COc4ccccc4-c4c(C5CCCCC5)c5ccc1cc5n4C3)CC2` [Example 308, (20R)-30-cyclohexyl-21-(2-fluoroethyl)-18-oxa-2-thia-1,3,10,21,24-pentaazahexacyclo[22.2.2.1^5,9.1^8,11.1^10,20.0^12,17]hentriaconta-5(31),6,8,11(30),12,14,16-heptaen-4-one 2,2-dioxide], the IC50 under setting [1] was in the range of 25 to 150 nM.

Turning to `CN1CC2CCN(CC2)S(=O)(=O)NC(=O)c2ccc3c([C@H]4CCCC[C@@H]4F)c4n(c3c2)CC(COc2ccccc2-4)C1` (single isomer, unassigned) [Example 503, 30-[(1R,2S) or (1S,2R)-2-fluorocyclohexyl]-22-methyl-18-oxa-2-thia-1,3,10,22-tetraazahexacyclo[22.2.2.1^5,9.1^8,11.1^10,20.0^12,17]hentriaconta-5(31),6,8,11(30),12,14,16-heptaen-4-one 2,2-dioxide], under setting [2], the IC50 lay in the range of 25 to 150 nM.

In the case of `CCN1CCN(Cc2cccnc2)C2COc3ccc(F)cc3-c3c(C4CCCCC4)c4ccc(cc4n3C2)C(=O)NS(=O)(=O)N(C)CC1` [Example 206, (7R)-14-cyclohexyl-21-ethyl-2-fluoro-18-methyl-24-(pyridin-3-ylmethyl)-7,8-dihydro-6H-7,11-(epiminoethanoiminoethanoiminothioiminomethano)-indolo[1,2-e][1,5]benzoxazocin-15-one 17,17-dioxide], the IC50 under setting [3] is below 25 nM.

“(7R)-14-cyclohexyl-4-methoxy-18,22-dimethyl-7,8-dihydro-6H-7,11-(ethanoiminopropanoiminothioiminomethano)indolo[1,2-e][1,5]benzoxazocin-15-one 17,17-dioxide [Compound A33]”: the IC50 under setting [4] is below 25 nM.

With `CN1CCCN(C)S(=O)(=O)NC(=O)c2ccc3c(C4CCCCC4)c4n(c3c2)CC(CC1)COc1ccccc1-4` (single isomer, unassigned; (+)) [Compound A13, (+)-14-cyclohexyl-18,22-dimethyl-7,8-dihydro-6H-7,11-(ethanoiminopropanoiminothioiminomethano)indolo[1,2-e][1,5]benzoxazocin-15-one 17,17-dioxide], the half-maximal inhibitory concentration (IC50) under setting [4] fell in the range of 25 to 150 nM.

Consider `CC(C)N1CCN(C)C2COc3ccc(F)cc3-c3c(C4CCCCC4)c4ccc(cc4n3C2)C(=O)NS(=O)(=O)N(C)CC1` [Example 209, (7R)-14-cyclohexyl-2-fluoro-21-isopropyl-18,24-dimethyl-7,8-dihydro-6H-7,11-(epiminoethanoiminoethanoiminothioiminomethano)-indolo[1,2-e][1,5]benzoxazocin-15-one 17,17-dioxide], for which the IC50 under setting [3] is below 25 nM.

`CN1CCN2CCC(C2)N(C)S(=O)(=O)NC(=O)c2ccc3c(C4CCCCC4)c4n(c3c2)C[C@@H]1COc1ccccc1-4` [Compound A18, (18R)-29-cyclohexyl-10,17-dimethyl-20-oxa-9-thia-1,8,10,14,17-pentaazahexacyclo[16.9.1.1^2,6.1^3,27.1^11,14.0^21,26]hentriaconta-2(31),3,5,21,23,25,27(29)-heptaen-7-one 9,9-dioxide]: the IC50 under setting [5] was below 25 nM.

As to `Cc1ccc2c(c1)OCC1Cn3c-2c(C2CCCCC2)c2ccc(cc23)C(=O)NS(=O)(=O)N(C)CCN(C)CCN1C` [Example 216, (7R)-14-cyclohexyl-3,18,21,24-tetramethyl-7,8-dihydro-6H-7,11-(epiminoethanoiminoethanoiminothioiminomethano)-indolo[1,2-e][1,5]benzoxazocin-15-one 17,17-dioxide], under setting [3], the IC50 is below 25 nM.

Turning to `CN1CCOC2CCN(CC2)S(=O)(=O)NC(=O)c2ccc3c(C4CCCCC4)c4n(c3c2)C[C@@H]1COc1ccccc1-4` [Example 306, (20R)-31-cyclohexyl-21-methyl-18,24-dioxa-2-thia-1,3,10,21-tetraazahexacyclo[23.2.2.1^5,9.1^8,11.1^10,20.0^12,17]dotriaconta-5(32),6,8,11(31),12,14,16-heptaen-4-one 2,2-dioxide], the IC50 under setting [1] was 150 to 500 nM.

In the case of `CN1CCN(C)C2COc3ccccc3-c3c(C4CCCCC4)c4ccc(cc4n3C2)C(=O)NS(=O)(=O)N(C)CC1` [Compound A2, (7R)-14-cyclohexyl-18,21,24-trimethyl-7,8-dihydro-6H-7,11-(epiminoethanoiminoethanoiminothioiminomethano)indolo[1,2-e][1,5]benzoxazocin-15-one 17,17-dioxide], under setting [4], the IC50 is below 25 nM.

For the molecule `CN1C2CCN(CC2)CCN(C)S(=O)(=O)NC(=O)c2ccc3c(C4CCCCC4)c4n(c3c2)C[C@@H]1COc1ccccc1-4` [Example 302, (3R)-31-cyclohexyl-2,22-dimethyl-5-oxa-21-thia-2,13,20,22,25-pentaazahexacyclo[23.2.2.1^3,13.1^12,15.1^14,18.0^6,11]dotriaconta-6,8,10,12(31),14(30),15,17-heptaen-19-one 21,21-dioxide], under setting [1], the IC50 is below 25 nM.

For the molecule `CCN1CCN(CCNC)C2COc3cc(F)ccc3-c3c(C4CCCCC4)c4ccc(cc4n3C2)C(=O)NS(=O)(=O)N(C)CC1` [Example 208, (7R)-14-cyclohexyl-21-ethyl-3-fluoro-18-methyl-24-[2-(methylamino)ethyl]-7,8-dihydro-6H-7,11-(epiminoethanoiminoethanoiminothioiminomethano)-indolo[1,2-e][1,5]benzoxazocin-15-one 17,17-dioxide], the IC50 under setting [3] lay within 25 to 150 nM.

For `COc1cccc2c1OCC1Cn3c-2c(C2CCCCC2)c2ccc(cc23)C(=O)NS(=O)(=O)N(C)CCN(Cc2cnn(C)c2)CCN1C` [Compound A29, (7R)-14-cyclohexyl-4-methoxy-18,24-dimethyl-21-[(1-methyl-1H-pyrazol-4-yl)methyl]-7,8-dihydro-6H-7,11-(epiminoethanoiminoethanoiminothioiminomethano)indolo[1,2-e][1,5]benzoxazocin-15-one 17,17-dioxide], under setting [4], the half-inhibitory concentration (IC50) is below 25 nM.

In the case of `Cc1ccc2c(c1)OCC1Cn3c-2c(C2CCCCC2)c2ccc(cc23)C(=O)NS(=O)(=O)N(C)CCN(C(C)C)CCN1C` [Example 218, (7R)-14-cyclohexyl-21-isopropyl-3,18,24-trimethyl-7,8-dihydro-6H-7,11-(epiminoethanoiminoethanoiminothioiminomethano)-indolo[1,2-e][1,5]benzoxazocin-15-one 17,17-dioxide], under setting [3], the IC50 was below 25 nM.

Regarding `O=C1NS(=O)(=O)N2CCCN(CCCC3COc4ccccc4-c4c(C5CCCCC5)c5ccc1cc5n4C3)CC2` (centres unmarked) [Example 508, 31-cyclohexyl-18-oxa-2-thia-1,3,10,24-tetraazahexacyclo[22.3.2.1^5,9.1^8,11.1^10,20.0^12,17]dotriaconta-5(32),6,8,11(31),12,14,16-heptaen-4-one 2,2-dioxide], the IC50 under setting [2] lay within 25 to 150 nM.

`O=C1NS(=O)(=O)N2CCN(CCCC3COc4ccccc4-c4c(C5CCCCC5)c5ccc1cc5n4C3)CC2` (centres unmarked) [Compound A34, 30-cyclohexyl-18-oxa-2-thia-1,3,10,24-tetraazahexacyclo[22.2.2.1^5,9.1^8,11.1^10,20.0^12,17]hentriaconta-5(31),6,8,11(30),12,14,16-heptaen-4-one 2,2-dioxide]: the IC50 under setting [5] was 25 to 150 nM.

One may read the IC50 as the midpoint of a concentration-inhibition curve.
